The text below walks through data of US5739359A, “Methods for preparing 1-deoxy paclitaxels” (Virginia Tech Intellectual Properties, Inc., priority 1997, dated 1998).

For assay [1], the system named is paclitaxel-resistant cell line HCT116/VM46. Kind of assay: cells. The format is cell-based. The conditions noted are these: Homo sapiens, HCT-116/VM46, 72 h, read-out: Cytotoxicity Assay IC50. As to the method:
Cytotoxicity was assessed in HCT-116 and line HCT116/VM46 human colon carcinoma cells by MTS (3-(4,5-dimethylthiazol-2-yl)-5-(3-carboxymethoxyphenyl)-2-(4-sulphenyl)-2H-tetrazolium, inner salt) assay as reported in T. L. Riss, el. al., "Comparison of MTT, XTT, and a novel tetrazolium compound MTS for in vitro proliferation and chemosensitivity assays.," Mol. Biol. Cell 3 (Suppl.):184a, 1992. Cells were plated at 4,000 cell/well in 96 well microliter plates and 24 hours later drugs were added and serial diluted. The cells were incubated at 37° for 72 hours at which time the tetrazolium dye, MTS at 333 μg/ml (final concentration), in combination with the electron coupling agent phenazine methosulfate at 25 μM (final concentration) was added. A dehydrogenase enzyme in live cells reduces the MTS to a form that absorbs light at […] which can be quantitated spectrophotometrically. The greater the absorbance the greater the number of live cells. The results are expressed as an IC50, which is the drug concentration required to inhibit cell proliferation (i.e. absorbance at 450 nm) to 50% of that of untreated control cells. The IC50 values for compounds evaluated in this assay are evaluated in Table I.

For assay [2] the following is noted: in vivo animal models; cited from earlier work.
Assay [3] deals with human colon carcinoma cells HCT-116. The assay is described as follows: MTS in vitro cytotoxicity assay, HCT-116. Type of assay: cell-based. The conditions noted are these: 72 h exposure. As to the method:
Cells were plated at 4,000 cell/well in 96 well microliter plates and 24 hours later drugs were added and serial diluted. […] The greater the absorbance the greater the number of live cells.

On to `CC(=O)O[C@H]1C(=O)[C@@]2(C)[C@H]([C@H](OC(=O)c3ccccc3)[C@]3(O)C[C@H](OC(=O)[C@H](O)[C@@H](NC(=O)c4ccccc4)c4ccccc4)C(C)=C1C3(C)C)[C@]1(OC(C)=O)CO[C@@H]1C[C@@H]2O` [paclitaxel], for which the IC50 in assay [1] was 0.225 nM. The “antitumor activity (in words)” value in assay [2] was “excellent antitumor activity”.
`CC(=O)O[C@@]12CO[C@@H]1C[C@@H]1OC(C)(C)O[C@H]3[C@H](O)C4=C(C)[C@@H](OC(=O)[C@H](O)[C@@H](NC(=O)c5ccccc5)c5ccccc5)C[C@@H]([C@@H](OC(=O)c5ccccc5)[C@H]2[C@@]13C)C4(C)C` [Compound 7a, 10-Deacetyl-1-deoxy-9(R)-dihydropaclitaxel 7,9-acetonide]: the IC50 in assay [1] is 0.0115 nM.
`CC(=O)O[C@@H]1C2=C(C)[C@@H](OC(=O)[C@H](O)[C@@H](NC(=O)OC(C)(C)C)c3ccccc3)C[C@@H]([C@@H](OC(=O)c3ccccc3)[C@@H]3[C@]4(OC(C)=O)CO[C@@H]4C[C@H](OC(C)=O)[C@@]3(C)[C@H]1OC(C)=O)C2(C)C` [Compound 7c, 7,9,10-triacetyl-1-deoxy-9(R)-dihydrodocetaxel]: the IC50 in assay [1] stood at 0.0218 nM.
As for `CC(=O)O[C@@]12CO[C@@H]1C[C@@H]1OC(c3ccccc3)O[C@H]3[C@H](O)C4=C(C)[C@@H](OC(=O)[C@H](O)[C@@H](NC(=O)OC(C)(C)C)c5ccccc5)C[C@@H]([C@@H](OC(=O)c5ccccc5)[C@H]2[C@@]13C)C4(C)C` (stereo partly drawn) [Compound 7b, 1-deoxy-9(R)-dihydrodocetaxel 7,9-benzylidene acetal], the IC50 worked out at 0.0105 nM in assay [3] and 0.0296 nM in assay [1].
